Data published in PMC10935294, “Biodirected Screening and Preparation of Larimichthys crocea Angiotensin-I-Converting Enzyme-Inhibitory Peptides by a Combined In Vitro and In Silico Approach” (Molecules, 2024).
Like-named read-outs stand apart in the source and are kept apart here. No end group written: not given here.

How the values were obtained:
ACE [1] = biological target: T1, ACE (Oryctolagus cuniculus, UniProt P12822); conditions: cited from earlier work
T1 sequence (P12822 34-1310): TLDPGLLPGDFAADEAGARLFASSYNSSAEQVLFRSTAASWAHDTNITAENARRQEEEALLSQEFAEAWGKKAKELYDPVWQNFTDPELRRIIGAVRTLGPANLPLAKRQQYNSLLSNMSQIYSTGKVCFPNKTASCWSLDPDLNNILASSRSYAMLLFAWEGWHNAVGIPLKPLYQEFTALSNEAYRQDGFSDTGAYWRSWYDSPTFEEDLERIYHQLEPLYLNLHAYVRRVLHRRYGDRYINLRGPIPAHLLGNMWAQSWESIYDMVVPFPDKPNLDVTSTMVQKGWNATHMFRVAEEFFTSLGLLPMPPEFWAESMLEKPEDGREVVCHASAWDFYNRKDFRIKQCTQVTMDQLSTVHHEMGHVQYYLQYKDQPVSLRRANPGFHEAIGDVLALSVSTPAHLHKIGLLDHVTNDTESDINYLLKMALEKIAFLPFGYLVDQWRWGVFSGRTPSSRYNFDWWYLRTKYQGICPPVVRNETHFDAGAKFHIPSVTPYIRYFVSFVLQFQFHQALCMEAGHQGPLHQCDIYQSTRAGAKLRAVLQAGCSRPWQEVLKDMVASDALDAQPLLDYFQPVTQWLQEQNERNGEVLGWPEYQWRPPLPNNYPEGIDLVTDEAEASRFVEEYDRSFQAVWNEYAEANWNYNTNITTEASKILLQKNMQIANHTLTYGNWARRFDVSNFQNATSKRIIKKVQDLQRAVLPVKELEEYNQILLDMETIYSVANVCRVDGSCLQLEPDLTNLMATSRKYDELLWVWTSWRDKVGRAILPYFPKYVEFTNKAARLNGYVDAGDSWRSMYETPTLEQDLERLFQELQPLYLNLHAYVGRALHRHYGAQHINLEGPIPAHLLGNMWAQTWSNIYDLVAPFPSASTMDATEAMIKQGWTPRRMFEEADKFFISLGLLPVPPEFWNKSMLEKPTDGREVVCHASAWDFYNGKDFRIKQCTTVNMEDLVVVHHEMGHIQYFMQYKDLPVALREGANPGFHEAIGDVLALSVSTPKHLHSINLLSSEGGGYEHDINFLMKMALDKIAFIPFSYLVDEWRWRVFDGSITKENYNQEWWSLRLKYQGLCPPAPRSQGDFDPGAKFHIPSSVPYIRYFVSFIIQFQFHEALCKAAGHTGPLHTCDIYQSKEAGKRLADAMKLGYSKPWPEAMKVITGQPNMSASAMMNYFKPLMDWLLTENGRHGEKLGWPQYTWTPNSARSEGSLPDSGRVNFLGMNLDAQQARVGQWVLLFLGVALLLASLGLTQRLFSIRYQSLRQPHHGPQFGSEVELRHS

ACE [2] = biological target: T1, ACE; assay: ACE-inhibitory activity (HHL substrate, HPLC determination of hippuric acid); format: biochemical; conditions: synthetic peptides, n = 3, mean ± SD; read-out: IC50 value before digestion
Experimental: (§1) The methods were previously established in our laboratory. […] Then, 60 μL of peptide samples (1 mg/mL) and 20 μL of ACE solution (0.1 U/mL) were placed in a 37 °C water bath for 10 min, and 50 μL of hippuryl-histidyl-leucine (HHL) solution (1 mM) was added to react for 60 min. Finally, the reaction was terminated by adding 1 M HCL (100 μL). The sample solution of the determination group was replaced by 60 μL boric acid buffer solution (pH = 8.3 0.3 M NaCl) in the control tube. Then, 10 μL boric acid buffer was put into the blank control tube instead of the ACE solution used in the control group. Column chromatography conditions were as follows: Waters-C18, 5 μm, 4.6 mm × 250 mm; detection wavelength: 228 nm; mobile phase: 80% A: 0.1% formic acid + 0.1% trifluoroacetic acid + 98% deionized water, 20% B: 100% acetonitrile; flow rate: 0.8 mL/min; column temperature: 30 °C; injection volume: 10 μL. The ACE-inhibition rate was calculated by Formula (1):(1) ACEinhibitoryrate%=(HAc−HAs)/([HA]c−[HA]H)×100% where HA is the concentration of hippuric acid, [HA]c is the concentration of HA in the control sample, [HA]s is the sample HA concentration, and [HA]H is the blank control HA concentration. The IC50 value was defined as the inhibitor concentration inhibiting 50% of ACE activity. First, the in vitro ACE inhibition rate was determined for samples of different concentrations. Then, the fitting curve and equation were drawn with the sample mass concentration as abscissa and ACE inhibition rate as ordinate. The value of IC50 was calculated according to the fitted curve.

ACE [3] = biological target: T1, ACE; assay: ACE-inhibitory activity after simulated in vitro gastrointestinal digestion (pepsin, trypsin); format: biochemical; conditions: pepsin pH 2, 2 h, then trypsin pH 7.5, 2 h, 37 °C; mean ± SD
Experimental: as §1
A slight modification of the research methodology based on the previous study was implemented. With slight modification, the peptide samples were dissolved in deionized water (1 mg/mL), adjusted the pH to 2 with 1 M HCl, pepsin (2% w/w) was added, and the reaction was run for 2 h at 37 °C in the temperature shaker. The reaction was adjusted to pH = 7.5 with 2 M NaOH, and trypsin (2% w/w) was added for 2 h. Then, it was placed in boiling water at 100 °C for 10 min and finally removed to wait for the temperature to decrease to room temperature and centrifuged to detect their ACE activity.

IC50 (ACE [2]) [µM]	IC50 (ACE [3]) [µM]	Substance	also measured
–	–	FDGSPVGY	Form of ACE inhibition (ACE [1]): competitively combine with the center site of ACE
10.3 ± 0.21	11.4 ± 0.43	FYEPFM [FYEPFM, Phe-Tyr-Glu-Pro-Phe-Met]	–
5.34 ± 0.15	33.73 ± 0.23	IHFGTTGK [IHFGTTGK, Ile-His-Phe-Gly-Thr-Thr-Gly-Lys]	–
6.53 ± 0.21	15.65 ± 0.15	INEMLDTK [INEMLDTK, Ile-Asn-Glu-Met-Leu-Asp-Try-Lys]	–
0.63 ± 0.09	0.8 ± 0.08	IPYADFK [IPYADFK, Ile-Pro-Tyr-Ala-Asp-Phe-Lys]	–
9.41 ± 0.24	24.3 ± 0.29	LYDHLGK [LYDHLGK, Leu-Tyr-Asp-His-Leu-Gly-Lys]	–
6.23 ± 0.34	7.27 ± 0.17	NWPWMK [NWPWMK, Asn-Trp-Pro-Trp-Met-Lys]	–
–	–	Tyr-Asn-Leu [YNL]	Reported activity (ACE [1]): ACE-inhibitory activity
–	–	VFDGVLRPGQ	Form of ACE inhibition (ACE [1]): non-competitive inhibition
–	–	VGLFPSRSF	Form of ACE inhibition (ACE [1]; peptide from tilapia skin): non-competitive inhibition
–	–	VVLASLK	IC50 (ACE [1]; peptides from Pacific saury): 962 µM
